Results reported in patent publication US9232799B2, “N-[(het)arylethyl)] pyrazole(thio)carboxamides and their heterosubstituted analogues” (BAYER INTELLECTUAL PROPERTY GMBH, priority 2010, dated 2016).

What was measured:
[1] = test system: Botrytis cinerea; experiment: In vivo preventive test on Botrytis cinerea (beans); conditions: preventive, beans, lesion size 2 days after inoculation; for Efficacy / pest or weed control at 100 ppm: 100 ppm of active ingredient
Text: To test for preventive activity, young plants are sprayed with the preparation of active compound. After the spray coating has dried on, 2 small pieces of agar covered with growth of Botrytis cinerea are placed on each leaf.

[2] = test system: Alternaria solani; experiment: In vivo preventive test on Alternaria solani (tomato); conditions: 500 ppm of active ingredient, evaluated 7 days after inoculation
Text: One day after this treatment, the plants are inoculated with an aqueous spore suspension of Alternaria solani.

[3] = test system: Pyrenophora teres; experiment: In vivo preventive test on Pyrenophora teres (barley); conditions: 500 ppm of active ingredient, evaluated 7-9 days after inoculation
Text: One day after this treatment, the plants are inoculated with an aqueous spore suspension of Pyrenophora teres.

[4] = test system: Blumeria graminis f.sp. hordei; experiment: In vivo preventive test on Blumeria graminis (barley); conditions: 500 ppm of active ingredient, evaluated 7 days after inoculation
Text: (§1) To test for preventive activity, young plants are sprayed with the preparation of active compound or active compound combination at the stated rate of application.

[5] = test system: Septoria tritici; experiment: In vivo preventive test on Septoria tritici (wheat); conditions: 500 ppm of active ingredient, evaluated 21 days after inoculation
Text: as §1

[6] = test system: Venturia inaequalis; experiment: In vivo preventive test on Venturia inaequalis (apple scab); conditions: 100 ppm of active ingredient, evaluated 10 days after inoculation
[7] = test system: Leptosphaeria nodorum; experiment: In vivo preventive test on Leptosphaeria nodorum (wheat); conditions: 500 ppm of active ingredient, evaluated 7-9 days after inoculation
Text: One day after this treatment, the plants are inoculated with an aqueous spore suspension of Leptosphaeria nodorum.

[8] = test system: aflatoxines production; experiment: microbe, parasite or virus in culture; type: cell-based, Aspergillus parasiticus; conditions: for inhibition at 50 µM: Aspergillus parasiticus, 168 h, read-out: % Inhibition of Aflatoxin at 50 μM
[9] = test system: Uromyces appendiculatus; experiment: In vivo preventive test on Uromyces appendiculatus (beans); conditions: 100 ppm of active ingredient, evaluated 10 days after inoculation
[10] = test system: Fusarium graminearum; experiment: microbe, parasite or virus in culture; type: cell-based; conditions: for inhibition at 50 µM: Fusarium graminearum, 168 h, read-out: % Inhibition of fungal growth at 50 μM
[11] = test system: Fusarium nivale (var. majus); experiment: In vivo preventive test on Fusarium nivale (wheat); conditions: 500 ppm of active ingredient, evaluated 5 days after inoculation
Text: as §1

[12] = logP by HPLC on reversed-phase column (C 18), EEC Directive 79/831 Annex V.A8; type: physicochemical
Method: In table 1, the logP values were determined in accordance with EEC Directive 79/831 Annex V.A8 by HPLC (High Performance Liquid Chromatography) on a reversed-phase column (C 18), using the method described below: Temperature: 40° C.; […]

[13] = test system: Sphaerotheca fuliginea; experiment: In vivo preventive test on Sphaerotheca fuliginea (cucumber); conditions: 500 ppm of active ingredient, evaluated 7 days after inoculation
Text: One day after this treatment, the plants are inoculated with an aqueous spore suspension of Sphaerotheca fuliginea.

[14] = test system: Puccinia triticina; experiment: In vivo preventive test on Puccinia triticina (wheat); conditions: evaluated 8 days after inoculation; for Efficacy: dose 500 ppm of active ingredient
[15] = test system: Fusarium nivale (var. majus); experiment: In vivo curative test on Fusarium nivale (wheat); conditions: 500 ppm of active ingredient, evaluated 5 days after inoculation
[16] = test system: Cochliobolus miyabeanus; experiment: In vivo protective test on Cochliobolus miyabeanus (rice); conditions: evaluated 4 days after inoculation; for Efficacy (protection): protective, 10 ppm of active ingredient (lowest of 250, 100, 50 and 10 ppm)
[17] = Botrytis cinerea, 48 h, read-out: Efficacy
[18] = dose 250 ppm of active ingredient
[19] = dose 10 ppm of active ingredient
[20] = dose 50 ppm of active ingredient
[21] = dose 100 ppm of active ingredient

Compound | Efficacy [1] | Efficacy [2] | Efficacy [3] | Efficacy [4] | Efficacy [5] | Efficacy [6] | Efficacy [7] | % Inhibition of Aflatoxin at 50 μM [8] | % Inhibition of fungal growth at 50 μM [10] | logP [12] | Efficacy [13] | Efficacy [15] | Efficacy [16, 18] | also measured
CC(Cc1ccc(Cl)cc1)N(C(=O)c1c(C(F)F)nn(C)c1F)C1CC1 (stereo not drawn) [Example 55] | 100% | 95% | 100% | 100% | 100% | 100% | 95% | 100% | 100% | 3.73 | 100% |  |  | Efficacy [9]: 96%; Efficacy [11]: 100%
CC(Cc1c(F)cccc1F)N(C(=O)c1c(C(F)F)nn(C)c1F)C1CC1 (stereo not drawn) [Example 26] |  | 100% | 100% | 100% | 100% |  | 95% | 100% | 99% | 3.42 | 86% | 100% |  | Efficacy [14]: 90%
CC(CN(C(=O)c1c(C(F)F)nn(C)c1F)C1CC1)c1ccccc1 (stereo not drawn) [Example 13] |  | 95% | 100% | 100% | 93% |  | 100% | 100% | 100% | 3.17 |  | 93% |  | 
CC(Cc1c(F)cccc1Cl)N(C(=O)c1c(C(F)F)nn(C)c1F)C1CC1 (stereo not drawn) [Example 120] | 94% | 100% | 100% | 94% | 100% | 100% | 100% | 100% | 100% | 3.76 | 100% |  |  | Efficacy [14]: 70%; Efficacy [9]: 100%; Efficacy [11]: 100%
COC(c1cc(Cl)cc(Cl)c1)C(C)NC(=O)c1c(C(F)F)nn(C)c1F (mixture of isomers) [Example 109] |  | 95% | 100% | 100% | 100% | 99% |  | 100% | 100% |  | 85% | 100% |  | 
CCOC(c1ccc(Cl)cc1Cl)C(C)NC(=O)c1c(C(F)F)nn(C)c1Cl (mixture of isomers) [Example 82] | 98% | 95% | 100% |  | 100% | 100% |  | 100% | 100% |  | 95% | 100% |  | 
COC(CNC(=O)c1c(C(F)F)nn(C)c1F)c1ccc(Cl)cc1Cl (stereo not drawn) [Example 75] | 95% |  | 100% | 100% | 100% | 95% |  | 100% | 100% | 3.25 | 80% | 86% |  | 
COC(CNC(=O)c1c(C(F)F)nn(C)c1Cl)c1ccc(Cl)cc1Cl (stereo not drawn) [Example 74] | 93% |  | 95% | 100% | 100% | 100% |  | 100% | 100% | 3.48 | 75% | 100% |  | 
CC(Cc1ncc(C(F)(F)F)cc1Cl)N(C(=O)c1c(C(F)F)nn(C)c1F)C1CC1 (stereo not drawn) [Example 188, N-{1-[3-chloro-5-(trifluoromethyl)pyridin-2-yl]propan-2-yl}-N-cyclopropyl-3-(difluoromethyl)-5-fluoro-1-methyl-1H-pyrazole-4-carboxamide] |  | 100% | 100% | 100% | 100% | 100% | 100% |  |  |  | 100% |  | 80% | pest or weed control at 100 ppm [1, 17]: 98%; pest or weed control at 500 ppm ([1]; Botrytis cinerea, 48 h, 500 ppm of active ingredient, read-out: Efficacy): > 95%; Efficacy [14]: 90%; Efficacy (protection) ([14]; preventive, 500 ppm of active ingredient): greater than 90%; inhibition at 50 µM [8]: 100%; Efficacy [9]: 98%; inhibition at 50 µM [10]: 100%; Efficacy [11]: 100%; chromatographic logP [12]: 3.8
Cn1nc(C(F)F)c(C(=O)N(CCc2ccccc2)C2CC2)c1F [Example 11] |  | 95% | 100% | 100% | 100% |  | 95% | 100% | 100% | 2.88 | 83% | 100% |  | 
CC(Cc1c(Cl)cccc1Cl)N(C(=O)c1c(C(F)F)nn(C)c1F)C1CC1 (stereo not drawn) [Example 115] | 93% | 100% | 100% | 100% |  | 100% | 95% | 100% | 100% | 4.06 | 100% |  |  | Efficacy [14]: 90%; Efficacy [9]: 98%; Efficacy [11]: 100%
CC(Cc1cccc(Cl)c1)NC(=O)c1c(C(F)F)nn(C)c1F (stereo not drawn) [Example 50] |  | 100% | 100% |  |  |  |  | 100% | 100% | 3.02 |  |  | 90% | 
COC(c1ccc(Cl)cc1Cl)C(C)NC(=O)c1c(C(F)F)nn(C)c1F (stereo not drawn) [Example 73, N-[1-(2,4-dichlorophenyl)-1-methoxypropan-2-yl]-3-(difluoromethyl)-5-fluoro-1-methyl-1H-pyrazole-4-carboxamide] |  | 100% | 100% | 100% | 100% | 100% |  |  |  | 3.75 | 100% |  | 98% | pest or weed control at 100 ppm [1, 17]: 99%; Efficacy [16, 19]: 65%; Efficacy [16, 20]: 92%; Efficacy [16, 21]: 97%; Efficacy (protection) [16]: at least 65%; inhibition at 50 µM [8]: 100%; inhibition at 50 µM [10]: 100%; Efficacy [11]: 88%; chromatographic logP [12]: 3.65
COC(c1ccc(Cl)cc1Cl)C(C)NC(=O)c1cn(C)nc1C(F)F (stereo not drawn) [1.14 from WO-2008/148570, N-[1-(2,4-dichlorophenyl)-1-methoxypropan-2-yl]-3-(difluoromethyl)-1-methyl-1H-pyrazole-4-carboxamide, reference compound] |  |  |  |  |  |  |  |  |  |  |  |  | 98% | Efficacy [16, 19]: 20%; Efficacy [16, 20]: 80%; Efficacy [16, 21]: 92%; Efficacy (protection) [16]: less than 20%
Cn1nc(C(F)F)c(C(=O)NCCc2ncc(C(F)(F)F)cc2Cl)c1F [Example 187] | 100% | 100% | 100% | 94% | 100% | 100% |  | 100% | 100% | 2.75 |  |  | 85% | Efficacy [9]: 96%
CC(Cc1cc(Cl)ccc1Cl)NC(=O)c1c(C(F)F)nn(C)c1F (stereo not drawn) [Example 92] |  | 100% | 100% |  |  |  |  | 100% | 100% | 3.37 | 88% |  | 90% | 
COC(CNC(=O)c1c(C(F)F)nn(C)c1Cl)c1cc(Cl)cc(Cl)c1 (stereo not drawn) [Example 106] |  |  | 90% |  | 71% |  |  | 89% | 69% | 3.55 |  | 93% |  | 
